Measured values taken from article PMC7193450 (Asian Journal of Pharmaceutical Sciences, 2018).

Legend:
[1] = Pharmacokinetic interaction in vivo in rats; details: rat; for AUC(0-inf) / C0 / clearance / half-life: Wistar, plasma, iv; for AUC(0-inf) / C0 / clearance / half-life / Cumulative urinary excretion over 8 h, compared with alone group: 45 mg/kg; for AUC(0-inf): AUC0→∞; for clearance: CLP; for half-life: T1/2β; for Cumulative urinary excretion over 8 h, compared with alone group: with probenecid 100 mg/kg
human OAT3 (hOAT3) = biological target: T1, human OAT3 (hOAT3) (Homo sapiens, UniProt Q8TCC7); experiment: In vitro transporter uptake assay in hOAT3-HEK293 cells; type: in vitro ADME; details: for Uptake in hOAT3-HEK293 cells compared with mock cells: 100 µM
T1 sequence (Q8TCC7 1-542): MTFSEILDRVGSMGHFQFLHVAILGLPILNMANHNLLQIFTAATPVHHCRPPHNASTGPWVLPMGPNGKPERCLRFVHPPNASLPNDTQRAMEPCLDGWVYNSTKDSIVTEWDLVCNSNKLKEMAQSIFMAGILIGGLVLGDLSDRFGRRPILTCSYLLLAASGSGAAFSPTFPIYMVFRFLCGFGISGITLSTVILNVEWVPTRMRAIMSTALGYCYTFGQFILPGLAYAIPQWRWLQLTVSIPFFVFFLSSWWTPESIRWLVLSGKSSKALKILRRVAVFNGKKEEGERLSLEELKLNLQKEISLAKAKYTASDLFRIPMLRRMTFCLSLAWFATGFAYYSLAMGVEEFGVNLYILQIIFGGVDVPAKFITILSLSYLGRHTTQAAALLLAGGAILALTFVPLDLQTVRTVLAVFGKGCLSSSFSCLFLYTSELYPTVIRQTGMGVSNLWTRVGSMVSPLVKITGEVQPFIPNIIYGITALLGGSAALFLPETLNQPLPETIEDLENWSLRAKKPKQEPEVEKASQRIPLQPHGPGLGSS

rat kidney slices = experiment: In vitro uptake in rat kidney slices; type: in vitro ADME; details: for Uptake in rat kidney slices at 37 °C compared with 4 °C: 100 µM; for Effect on the uptake of cilastatin in rat kidney slices / Effect on the uptake of imipenem in rat kidney slices: inhibitor 200 µM; for Effect on the uptake of cilastatin in rat kidney slices: cilastatin 100 µM; for Effect on the uptake of imipenem in rat kidney slices: imipenem 100 µM
OAT1 = biological target: T2, OAT1 (Homo sapiens, UniProt Q4U2R8); experiment: In vitro transporter uptake assay in hOAT1-HEK293 cells; details: human, pH 7.4
T2 sequence (Q4U2R8 1-563): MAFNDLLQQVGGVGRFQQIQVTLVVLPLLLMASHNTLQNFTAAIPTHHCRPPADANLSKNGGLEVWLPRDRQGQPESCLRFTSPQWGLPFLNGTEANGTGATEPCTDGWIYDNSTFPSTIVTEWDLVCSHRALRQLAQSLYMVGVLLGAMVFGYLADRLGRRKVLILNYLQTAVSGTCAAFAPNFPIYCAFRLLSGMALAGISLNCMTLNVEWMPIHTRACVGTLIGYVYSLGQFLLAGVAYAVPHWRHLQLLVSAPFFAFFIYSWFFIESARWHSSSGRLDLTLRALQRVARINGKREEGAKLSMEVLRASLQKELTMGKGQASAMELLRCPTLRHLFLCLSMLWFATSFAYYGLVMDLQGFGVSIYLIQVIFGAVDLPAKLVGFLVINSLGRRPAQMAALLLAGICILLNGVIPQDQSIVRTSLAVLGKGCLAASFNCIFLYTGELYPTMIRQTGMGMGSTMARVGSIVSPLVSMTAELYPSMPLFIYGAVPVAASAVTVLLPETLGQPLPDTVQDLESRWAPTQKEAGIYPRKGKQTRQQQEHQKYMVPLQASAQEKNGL

human OAT1 (hOAT1) = biological target: T3, human OAT1 (hOAT1) (Homo sapiens, UniProt Q4U2R8); experiment: as above
T3 sequence (Q4U2R8 1-563): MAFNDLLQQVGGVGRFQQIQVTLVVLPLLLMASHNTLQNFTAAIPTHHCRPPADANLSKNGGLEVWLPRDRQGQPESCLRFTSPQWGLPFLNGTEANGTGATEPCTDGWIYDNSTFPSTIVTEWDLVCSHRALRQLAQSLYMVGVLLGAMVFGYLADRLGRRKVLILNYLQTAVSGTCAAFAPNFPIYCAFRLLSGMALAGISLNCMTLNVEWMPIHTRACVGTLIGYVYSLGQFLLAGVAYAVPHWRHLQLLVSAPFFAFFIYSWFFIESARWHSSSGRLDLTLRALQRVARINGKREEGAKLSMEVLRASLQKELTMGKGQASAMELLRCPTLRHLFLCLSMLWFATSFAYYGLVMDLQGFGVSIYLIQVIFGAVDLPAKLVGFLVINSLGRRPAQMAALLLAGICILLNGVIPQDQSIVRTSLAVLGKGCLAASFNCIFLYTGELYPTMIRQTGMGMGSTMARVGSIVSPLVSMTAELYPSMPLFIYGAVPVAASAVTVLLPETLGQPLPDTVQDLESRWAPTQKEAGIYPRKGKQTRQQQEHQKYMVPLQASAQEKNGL

OAT3 = biological target: T4, OAT3 (Homo sapiens, UniProt Q8TCC7); experiment: In vitro transporter uptake assay in hOAT3-HEK293 cells; type: in vitro ADME; details: human, HEK293 cells transfected with human OAT3 (hOAT3-HEK293), pH 7.4
T4 sequence (Q8TCC7 1-542): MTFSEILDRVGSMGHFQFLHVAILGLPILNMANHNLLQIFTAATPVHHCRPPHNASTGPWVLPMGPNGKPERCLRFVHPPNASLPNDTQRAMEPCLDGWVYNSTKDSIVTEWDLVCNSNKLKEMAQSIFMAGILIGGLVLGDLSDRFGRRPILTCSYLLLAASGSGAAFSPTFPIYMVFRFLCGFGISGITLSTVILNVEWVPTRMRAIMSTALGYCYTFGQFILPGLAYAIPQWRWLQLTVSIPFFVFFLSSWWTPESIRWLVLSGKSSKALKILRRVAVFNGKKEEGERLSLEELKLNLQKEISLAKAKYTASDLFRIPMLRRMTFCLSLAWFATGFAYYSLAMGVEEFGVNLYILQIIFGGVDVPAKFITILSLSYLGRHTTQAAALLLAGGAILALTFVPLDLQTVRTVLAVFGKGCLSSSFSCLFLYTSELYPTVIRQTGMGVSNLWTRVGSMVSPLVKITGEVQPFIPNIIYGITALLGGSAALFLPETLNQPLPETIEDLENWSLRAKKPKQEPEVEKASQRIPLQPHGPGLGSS

[2] = substrate: CC1(C)C[C@@H]1C(=O)N/C(=C\CCCCSC[C@H](N)C(=O)O)C(=O)O; experiment: cells, lysate or membranes named; details: other: hOAT3-HEK293 cells, alone, 1 min uptake, 0–2000 µM; pH 7.4; 37.0 °C
[3] = of cilastatin, i.v., cilastatin + imipenem, 45 mg/kg for both
[4] = C0, rat, single administration (alone)
[5] = imipenem 100 µM, cilastatin 0–2000 µM, Eadie–Hofstee plot
[6] = of imipenem, i.v., imipenem + cilastatin, 45 mg/kg for both

With CC1(C)C[C@@H]1C(=O)N/C(=C\CCCCSC[C@H](N)C(=O)O)C(=O)O [Cilastatin] the AUC(0-inf) [1, 3] was 84700 ng·h/mL, the AUC(0-inf) ([1]; single administration (alone)) was 56500 ng·h/mL and the C0 ([1]; C0, of cilastatin, i.v., cilastatin + imipenem, 45 mg/kg for both) was 175 ± 11.1 µg/mL. For the same molecule, the C0 [1, 4] was 156 ± 3.6 µg/mL, the clearance [1, 3] was 8.9 ± 0.3 mL/min/kg and the clearance ([1]; single administration (alone)) was 13.3 ± 0.1 mL/min/kg. For the same molecule, the half-life [1, 3] was 28.6 ± 4 min, the half-life ([1]; single administration (alone)) was 19.7 ± 0.8 min and the “Cumulative urinary excretion over 8 h, compared with alone group” value ([1]; i.v.) was “significantly decreased”. For the same molecule, the “Cumulative urinary excretion of cilastatin, compared with cilastatin alone group” value ([1]; i.v., co-administered with imipenem, 45 mg/kg for both) was “decreased significantly”, the “Uptake in hOAT3-HEK293 cells compared with mock cells” value (human OAT3 (hOAT3)) was “significantly higher” and the “Uptake in rat kidney slices at 37 °C compared with 4 °C” value (rat kidney slices) was “significantly higher”.

In the case of C[C@@H](O)[C@H]1C(=O)N2C(C(=O)O)=C(SCCN=CN)C[C@H]12 [Imipenem], the Km at 1 min (OAT1) is reported as 631 ± 30 µM, the “Uptake in hOAT1-HEK293 cells compared with mock cells” value (human OAT1 (hOAT1); 100 µM) is reported as “significantly higher” and the Vmax (human OAT1 (hOAT1); hOAT1, alone) is reported as 0.223 ± 0.011 nmol/mg protein/min. The Vmax (human OAT1 (hOAT1); hOAT1-HEK293 cells, alone, 1 min uptake, 0–2000 µM) was 0.223 ± 0.011 nmol/mg protein/1 min, the “Inhibitory type on the uptake of cilastatin in hOAT1-HEK293 cells” value (human OAT1 (hOAT1); [5]) was “competitive” and the AUC(0-inf) [1, 6] was 92400 ng·h/mL. For the same molecule, the AUC(0-inf) ([1]; single administration (alone)) was 34800 ng·h/mL, the C0 ([1]; C0, of imipenem, i.v., imipenem + cilastatin, 45 mg/kg for both) was 187 ± 13.5 µg/mL and the C0 [1, 4] was 129 ± 2.6 µg/mL. The clearance [1, 6] was 8.1 ± 0.4 mL/min/kg, the clearance ([1]; single administration (alone)) was 21.6 ± 0.4 mL/min/kg and the half-life [1, 6] was 62 ± 1.4 min. For the same molecule, the half-life ([1]; single administration (alone)) was 18.5 ± 2.8 min, the “Cumulative urinary excretion over 8 h, compared with alone group” value ([1]; i.v.) was “significantly decreased” and the Km at 1 min (OAT3) was 759 ± 62 µM. The “Uptake in hOAT3-HEK293 cells compared with mock cells” value (human OAT3 (hOAT3)) was “significantly higher”, the Vmax (human OAT3 (hOAT3); hOAT3, alone) was 0.329 ± 0.036 nmol/mg protein/min and the Vmax (human OAT3 (hOAT3); hOAT3-HEK293 cells, alone, 1 min uptake, 0–2000 µM) was 0.329 ± 0.036 nmol/mg protein/1 min. For the same molecule, the “Inhibitory type on the uptake of cilastatin in hOAT3-HEK293 cells” value (human OAT3 (hOAT3); [5]) was “competitive” and the “Uptake in rat kidney slices at 37 °C compared with 4 °C” value (rat kidney slices) was “significantly higher”.

For Nc1ccc(C(=O)NCC(=O)O)cc1 [PAH, p-aminohippurate], the “Effect on the uptake of cilastatin in rat kidney slices” value (from here on “Effect on the uptake of cilastatin”) (rat kidney slices) was “inhibited” and the “Effect on the uptake of imipenem in rat kidney slices” value (shortened to “Effect on the uptake of imipenem”) (rat kidney slices) was “inhibited”.

For CC1(C)S[C@@H]2[C@H](NC(=O)Cc3ccccc3)C(=O)N2[C@H]1C(=O)O [PCG, benzylpenicillin], the “Effect on uptake of imipenem and cilastatin in hOAT3-HEK293 cells” value (human OAT3 (hOAT3); PCG 200 µM, imipenem 100 µM, cilastatin 100 µM) was “significantly inhibited”, the “Effect on the uptake of cilastatin” value (rat kidney slices) was “inhibited” and the “Effect on the uptake of imipenem” value (rat kidney slices) was “inhibited”.

For CC[N+](CC)(CC)CC [TEA, tetraethyl ammonium], the “Effect on the uptake of cilastatin” value (rat kidney slices) was “not TEA inhibited” and the “Effect on the uptake of imipenem” value (rat kidney slices) was “not TEA inhibited”.

In the case of CCCN(CCC)S(=O)(=O)c1ccc(C(=O)O)cc1 [probenecid, Probenecid], the “Effect on the uptake of cilastatin” value (rat kidney slices) is reported as “inhibited” and the “Effect on the uptake of imipenem” value (rat kidney slices) is reported as “inhibited”.

B1: human OAT3 (hOAT3) (Homo sapiens) (protein)
chain: MTFSEILDRVGSMGHFQFLHVAILGLPILNMANHNLLQIFTAATPVHHCRPPHNASTGPWVLPMGPNGKPERCLRFVHPPNASLPNDTQRAMEPCLDGWVYNSTKDSIVTEWDLVCNSNKLKEMAQSIFMAGILIGGLVLGDLSDRFGRRPILTCSYLLLAASGSGAAFSPTFPIYMVFRFLCGFGISGITLSTVILNVEWVPTRMRAIMSTALGYCYTFGQFILPGLAYAIPQWRWLQLTVSIPFFVFFLSSWWTPESIRWLVLSGKSSKALKILRRVAVFNGKKEEGERLSLEELKLNLQKEISLAKAKYTASDLFRIPMLRRMTFCLSLAWFATGFAYYSLAMGVEEFGVNLYILQIIFGGVDVPAKFITILSLSYLGRHTTQAAALLLAGGAILALTFVPLDLQTVRTVLAVFGKGCLSSSFSCLFLYTSELYPTVIRQTGMGVSNLWTRVGSMVSPLVKITGEVQPFIPNIIYGITALLGGSAALFLPETLNQPLPETIEDLENWSLRAKKPKQEPEVEKASQRIPLQPHGPGLGSS
B1 showed a Km [2] of 238 ± 2 µM and a Vmax [2] of 0.000751 µmol/min/mg.
